Numbers after ± are expanded uncertainties.
Conditions: Liquid, Vibrating tube method

## CCCCCCCC[n+]1cccc(C)c1.F[B-](F)(F)F [N-octyl-3-methylpyridinium tetrafluoroborate]
283.15 K, 100 kPa
  mass density: 1106.25 ± 1.1 kg/m3
283.15 K, 5000 kPa
  mass density: 1108.56 ± 1.1 kg/m3
283.15 K, 10000 kPa
  mass density: 1110.95 ± 1.1 kg/m3
283.15 K, 15000 kPa
  mass density: 1113.26 ± 1.1 kg/m3
283.15 K, 20000 kPa
  mass density: 1115.53 ± 1.2 kg/m3
283.15 K, 25000 kPa
  mass density: 1117.71 ± 1.2 kg/m3
283.15 K, 30000 kPa
  mass density: 1119.8 ± 1.2 kg/m3
283.15 K, 35000 kPa
  mass density: 1121.93 ± 1.3 kg/m3
283.15 K, 40000 kPa
  mass density: 1123.9 ± 1.3 kg/m3
283.15 K, 45000 kPa
  mass density: 1125.95 ± 1.3 kg/m3
283.15 K, 50000 kPa
  mass density: 1127.8 ± 1.4 kg/m3
283.15 K, 55000 kPa
  mass density: 1129.77 ± 1.4 kg/m3
283.15 K, 60000 kPa
  mass density: 1131.58 ± 1.4 kg/m3
283.15 K, 65000 kPa
  mass density: 1133.37 ± 1.5 kg/m3
288.15 K, 100 kPa
  mass density: 1102.88 ± 1.1 kg/m3
288.15 K, 5000 kPa
  mass density: 1105.22 ± 1.1 kg/m3
288.15 K, 10000 kPa
  mass density: 1107.61 ± 1.1 kg/m3
288.15 K, 15000 kPa
  mass density: 1109.98 ± 1.1 kg/m3
288.15 K, 20000 kPa
  mass density: 1112.32 ± 1.2 kg/m3
288.15 K, 25000 kPa
  mass density: 1114.52 ± 1.2 kg/m3
288.15 K, 30000 kPa
  mass density: 1116.64 ± 1.2 kg/m3
288.15 K, 35000 kPa
  mass density: 1118.71 ± 1.2 kg/m3
288.15 K, 40000 kPa
  mass density: 1120.76 ± 1.3 kg/m3
288.15 K, 45000 kPa
  mass density: 1122.74 ± 1.3 kg/m3
288.15 K, 50000 kPa
  mass density: 1124.72 ± 1.3 kg/m3
288.15 K, 55000 kPa
  mass density: 1126.63 ± 1.4 kg/m3
288.15 K, 60000 kPa
  mass density: 1128.51 ± 1.4 kg/m3
288.15 K, 65000 kPa
  mass density: 1130.3 ± 1.4 kg/m3
293.15 K, 100 kPa
  mass density: 1099.53 ± 1.1 kg/m3
293.15 K, 5000 kPa
  mass density: 1102.06 ± 1.1 kg/m3
293.15 K, 10000 kPa
  mass density: 1104.51 ± 1.1 kg/m3
293.15 K, 15000 kPa
  mass density: 1106.86 ± 1.1 kg/m3
293.15 K, 20000 kPa
  mass density: 1109.18 ± 1.1 kg/m3
293.15 K, 25000 kPa
  mass density: 1111.4 ± 1.2 kg/m3
293.15 K, 30000 kPa
  mass density: 1113.56 ± 1.2 kg/m3
293.15 K, 35000 kPa
  mass density: 1115.81 ± 1.2 kg/m3
293.15 K, 40000 kPa
  mass density: 1117.82 ± 1.3 kg/m3
293.15 K, 45000 kPa
  mass density: 1119.87 ± 1.3 kg/m3
293.15 K, 50000 kPa
  mass density: 1121.88 ± 1.3 kg/m3
293.15 K, 55000 kPa
  mass density: 1123.82 ± 1.4 kg/m3
293.15 K, 60000 kPa
  mass density: 1125.67 ± 1.4 kg/m3
293.15 K, 65000 kPa
  mass density: 1127.47 ± 1.4 kg/m3
298.15 K, 100 kPa
  mass density: 1096.08 ± 1 kg/m3
298.15 K, 5000 kPa
  mass density: 1098.54 ± 1.1 kg/m3
298.15 K, 10000 kPa
  mass density: 1101.04 ± 1.1 kg/m3
298.15 K, 15000 kPa
  mass density: 1103.47 ± 1.1 kg/m3
298.15 K, 20000 kPa
  mass density: 1105.84 ± 1.1 kg/m3
298.15 K, 25000 kPa
  mass density: 1108.07 ± 1.2 kg/m3
298.15 K, 30000 kPa
  mass density: 1110.33 ± 1.2 kg/m3
298.15 K, 35000 kPa
  mass density: 1112.49 ± 1.2 kg/m3
298.15 K, 40000 kPa
  mass density: 1114.56 ± 1.3 kg/m3
298.15 K, 45000 kPa
  mass density: 1116.65 ± 1.3 kg/m3
298.15 K, 50000 kPa
  mass density: 1118.65 ± 1.3 kg/m3
298.15 K, 55000 kPa
  mass density: 1120.63 ± 1.4 kg/m3
298.15 K, 60000 kPa
  mass density: 1122.5 ± 1.4 kg/m3
298.15 K, 65000 kPa
  mass density: 1124.52 ± 1.4 kg/m3
303.15 K, 100 kPa
  mass density: 1092.83 ± 1 kg/m3
303.15 K, 5000 kPa
  mass density: 1095.28 ± 1.1 kg/m3
303.15 K, 10000 kPa
  mass density: 1097.84 ± 1.1 kg/m3
303.15 K, 15000 kPa
  mass density: 1100.3 ± 1.1 kg/m3
303.15 K, 20000 kPa
  mass density: 1102.65 ± 1.1 kg/m3
303.15 K, 25000 kPa
  mass density: 1104.99 ± 1.2 kg/m3
303.15 K, 30000 kPa
  mass density: 1107.32 ± 1.2 kg/m3
303.15 K, 35000 kPa
  mass density: 1109.47 ± 1.2 kg/m3
303.15 K, 40000 kPa
  mass density: 1111.6 ± 1.2 kg/m3
303.15 K, 45000 kPa
  mass density: 1113.68 ± 1.3 kg/m3
303.15 K, 50000 kPa
  mass density: 1115.8 ± 1.3 kg/m3
303.15 K, 55000 kPa
  mass density: 1117.71 ± 1.3 kg/m3
303.15 K, 60000 kPa
  mass density: 1119.7 ± 1.4 kg/m3
303.15 K, 65000 kPa
  mass density: 1121.56 ± 1.4 kg/m3
308.15 K, 100 kPa
  mass density: 1089.26 ± 1 kg/m3
308.15 K, 5000 kPa
  mass density: 1091.74 ± 1.1 kg/m3
308.15 K, 10000 kPa
  mass density: 1094.35 ± 1.1 kg/m3
308.15 K, 15000 kPa
  mass density: 1096.91 ± 1.1 kg/m3
308.15 K, 20000 kPa
  mass density: 1099.29 ± 1.1 kg/m3
308.15 K, 25000 kPa
  mass density: 1101.65 ± 1.1 kg/m3
308.15 K, 30000 kPa
  mass density: 1103.95 ± 1.2 kg/m3
308.15 K, 35000 kPa
  mass density: 1106.18 ± 1.2 kg/m3
308.15 K, 40000 kPa
  mass density: 1108.37 ± 1.2 kg/m3
308.15 K, 45000 kPa
  mass density: 1110.56 ± 1.3 kg/m3
308.15 K, 50000 kPa
  mass density: 1112.6 ± 1.3 kg/m3
308.15 K, 55000 kPa
  mass density: 1114.63 ± 1.3 kg/m3
308.15 K, 60000 kPa
  mass density: 1116.66 ± 1.4 kg/m3
308.15 K, 65000 kPa
  mass density: 1118.6 ± 1.4 kg/m3
313.15 K, 100 kPa
  mass density: 1085.88 ± 1 kg/m3
313.15 K, 5000 kPa
  mass density: 1088.47 ± 1 kg/m3
313.15 K, 10000 kPa
  mass density: 1091.09 ± 1.1 kg/m3
313.15 K, 15000 kPa
  mass density: 1093.69 ± 1.1 kg/m3
313.15 K, 20000 kPa
  mass density: 1096.09 ± 1.1 kg/m3
313.15 K, 25000 kPa
  mass density: 1098.54 ± 1.1 kg/m3
313.15 K, 30000 kPa
  mass density: 1100.84 ± 1.2 kg/m3
313.15 K, 35000 kPa
  mass density: 1103.14 ± 1.2 kg/m3
313.15 K, 40000 kPa
  mass density: 1105.37 ± 1.2 kg/m3
313.15 K, 45000 kPa
  mass density: 1107.51 ± 1.2 kg/m3
313.15 K, 50000 kPa
  mass density: 1109.66 ± 1.3 kg/m3
313.15 K, 55000 kPa
  mass density: 1111.71 ± 1.3 kg/m3
313.15 K, 60000 kPa
  mass density: 1113.7 ± 1.3 kg/m3
313.15 K, 65000 kPa
  mass density: 1115.65 ± 1.4 kg/m3
318.15 K, 100 kPa
  mass density: 1082.49 ± 1 kg/m3
318.15 K, 5000 kPa
  mass density: 1085.16 ± 1 kg/m3
318.15 K, 10000 kPa
  mass density: 1087.86 ± 1.1 kg/m3
318.15 K, 15000 kPa
  mass density: 1090.4 ± 1.1 kg/m3
318.15 K, 20000 kPa
  mass density: 1092.87 ± 1.1 kg/m3
318.15 K, 25000 kPa
  mass density: 1095.34 ± 1.1 kg/m3
318.15 K, 30000 kPa
  mass density: 1097.71 ± 1.2 kg/m3
318.15 K, 35000 kPa
  mass density: 1100 ± 1.2 kg/m3
318.15 K, 40000 kPa
  mass density: 1102.23 ± 1.2 kg/m3
318.15 K, 45000 kPa
  mass density: 1104.4 ± 1.2 kg/m3
318.15 K, 50000 kPa
  mass density: 1106.52 ± 1.3 kg/m3
318.15 K, 55000 kPa
  mass density: 1108.63 ± 1.3 kg/m3
318.15 K, 60000 kPa
  mass density: 1110.64 ± 1.3 kg/m3
318.15 K, 65000 kPa
  mass density: 1112.69 ± 1.4 kg/m3
323.15 K, 100 kPa
  mass density: 1079.26 ± 1 kg/m3
323.15 K, 5000 kPa
  mass density: 1082.03 ± 1 kg/m3
323.15 K, 10000 kPa
  mass density: 1084.69 ± 1.1 kg/m3
323.15 K, 15000 kPa
  mass density: 1087.27 ± 1.1 kg/m3
323.15 K, 20000 kPa
  mass density: 1089.69 ± 1.1 kg/m3
323.15 K, 25000 kPa
  mass density: 1092.26 ± 1.1 kg/m3
323.15 K, 30000 kPa
  mass density: 1094.65 ± 1.1 kg/m3
323.15 K, 35000 kPa
  mass density: 1096.93 ± 1.2 kg/m3
323.15 K, 40000 kPa
  mass density: 1099.23 ± 1.2 kg/m3
323.15 K, 45000 kPa
  mass density: 1101.43 ± 1.2 kg/m3
323.15 K, 50000 kPa
  mass density: 1103.63 ± 1.3 kg/m3
323.15 K, 55000 kPa
  mass density: 1105.69 ± 1.3 kg/m3
323.15 K, 60000 kPa
  mass density: 1107.78 ± 1.3 kg/m3
323.15 K, 65000 kPa
  mass density: 1109.77 ± 1.4 kg/m3
328.15 K, 100 kPa
  mass density: 1075.89 ± 0.99 kg/m3
328.15 K, 5000 kPa
  mass density: 1078.67 ± 1 kg/m3
328.15 K, 10000 kPa
  mass density: 1081.32 ± 1 kg/m3
328.15 K, 15000 kPa
  mass density: 1083.91 ± 1.1 kg/m3
328.15 K, 20000 kPa
  mass density: 1086.53 ± 1.1 kg/m3
328.15 K, 25000 kPa
  mass density: 1089.05 ± 1.1 kg/m3
328.15 K, 30000 kPa
  mass density: 1091.41 ± 1.1 kg/m3
328.15 K, 35000 kPa
  mass density: 1093.82 ± 1.2 kg/m3
328.15 K, 40000 kPa
  mass density: 1096.15 ± 1.2 kg/m3
328.15 K, 45000 kPa
  mass density: 1098.38 ± 1.2 kg/m3
328.15 K, 50000 kPa
  mass density: 1100.54 ± 1.2 kg/m3
328.15 K, 55000 kPa
  mass density: 1102.61 ± 1.3 kg/m3
328.15 K, 60000 kPa
  mass density: 1104.75 ± 1.3 kg/m3
328.15 K, 65000 kPa
  mass density: 1106.82 ± 1.3 kg/m3
333.15 K, 100 kPa
  mass density: 1072.64 ± 0.99 kg/m3
333.15 K, 5000 kPa
  mass density: 1075.39 ± 1 kg/m3
333.15 K, 10000 kPa
  mass density: 1078.24 ± 1 kg/m3
333.15 K, 15000 kPa
  mass density: 1080.9 ± 1.1 kg/m3
333.15 K, 20000 kPa
  mass density: 1083.46 ± 1.1 kg/m3
333.15 K, 25000 kPa
  mass density: 1086.03 ± 1.1 kg/m3
333.15 K, 30000 kPa
  mass density: 1088.48 ± 1.1 kg/m3
333.15 K, 35000 kPa
  mass density: 1090.88 ± 1.1 kg/m3
333.15 K, 40000 kPa
  mass density: 1093.31 ± 1.2 kg/m3
333.15 K, 45000 kPa
  mass density: 1095.48 ± 1.2 kg/m3
333.15 K, 50000 kPa
  mass density: 1097.71 ± 1.2 kg/m3
333.15 K, 55000 kPa
  mass density: 1099.8 ± 1.3 kg/m3
333.15 K, 60000 kPa
  mass density: 1101.97 ± 1.3 kg/m3
333.15 K, 65000 kPa
  mass density: 1104.05 ± 1.3 kg/m3

From the NIST ThermoML archive (doi:10.1016/j.fluid.2011.12.029)
